{"source": "patent US20230172884A1", "about": "“USE OF BUCILLAMINE IN THE TREATMENT OF INFECTIOUS DISEASES” (Revive Therapeutics Ltd, priority 2020, published 2023)", "key": {"[1]": {"conditions": "versus N-acetylcysteine (NAC); cited from earlier work"}, "COVID-19": {"tested_on": "COVID-19", "test": "Phase 3 multi-center, randomized, double-blind, placebo-controlled study of Bucillamine in patients with mild-moderate COVID-19", "assay_type": "in vivo, human", "conditions": "Bucillamine 100 mg or 200 mg TID for up to 14 days, preliminary indications to date", "procedure": "A Phase 3 confirmatory clinical trial titled, “A Multi-Center, Randomized, Double-Blind, Placebo-Controlled Study of Bucillamine in Patients with Mild-Moderate COVID-19”, was undertaken to enroll up to 1,000 patients randomized 1:1:1 to receive Bucillamine 100 mg three times a day (“TID”), Bucillamine 200 mg TID or placebo TID for up to 14 days. The primary objective is to compare the frequency of hospitalization or death in patients with mild-moderate COVID-19 receiving Bucillamine therapy with those receiving placebo. The primary endpoint is the proportion of patients meeting a composite endpoint of hospitalization or death from the time of the first dose through Day 28 following randomization. Efficacy was assessed by comparing clinical outcomes (death or hospitalization), disease severity using the 8-category NIAID COVID ordinal scale, supplemental oxygen use, and progression of COVID-19 between patients receiving standard-of-care plus Bucillamine (high dose and/or low dose) and patients receiving standard-of-care plus placebo."}, "[2]": {"conditions": "not told; cited from earlier work"}, "[3]": {"conditions": "statement with literature references 8, 9; cited from earlier work"}}}
{"molecule": "CC(C)(S)C(=O)NC(CS)C(=O)O", "note": "(stereo not drawn) [Bucillamine, N-(mercapto-2-methylpropionyl)-l-cysteine]", "values": [{"measurement": "potency as a thiol donor in vivo relative to NAC", "setting": "[1]", "result": 16, "unit": "fold"}, {"measurement": "hospitalization or death from COVID-19 (composite clinical outcome)", "setting": "COVID-19", "result": "none of the patients receiving Bucillamine in the trial have to date been hospitalised for COVID-19 or have died from COVID-19"}, {"measurement": "cell permeability", "setting": "[2]", "result": "highly cell permeable"}, {"measurement": "toxicity", "setting": "[3]", "result": "non-toxic"}]}
